According to patent publication US5486597A, “Tetrapeptide derivatives and analogues” (James Black Foundation Limited, priority 1990, dated 1996):
Non-standard residues stand in square brackets, D forms with d. Residues, ends and D or L forms follow the SMILES beside them. *: point of attachment. Trp(1-Me) = Cn1cc(C[C@H](N)C(=O)O)c2ccccc21; 2Nal = N[C@@H](Cc1ccc2ccccc2c1)C(=O)O; Adoc = O=C(OC12CC3CC(CC(C3)C1)C2)*; Boc = CC(C)(C)OC(=O)*

Each compound was assayed against T1, cholecystokinin receptors (Cavia porcellus, UniProt Q63931) (assay: CCK-antagonist activity in isolated guinea-pig gall-bladder strip preparations). Details: guinea-pig gall-bladder strips; CCK-8 as agonist; test compound incubated for 60 minutes; standard errors less than 5%.
T1 construct: Isolated, strip preparations were prepared from gall-bladders removed from male Dunkin-Hartley guinea-pigs; from tissue; host or cells: guinea-pig gall-bladder strips
T1 sequence (Q63931 1-430): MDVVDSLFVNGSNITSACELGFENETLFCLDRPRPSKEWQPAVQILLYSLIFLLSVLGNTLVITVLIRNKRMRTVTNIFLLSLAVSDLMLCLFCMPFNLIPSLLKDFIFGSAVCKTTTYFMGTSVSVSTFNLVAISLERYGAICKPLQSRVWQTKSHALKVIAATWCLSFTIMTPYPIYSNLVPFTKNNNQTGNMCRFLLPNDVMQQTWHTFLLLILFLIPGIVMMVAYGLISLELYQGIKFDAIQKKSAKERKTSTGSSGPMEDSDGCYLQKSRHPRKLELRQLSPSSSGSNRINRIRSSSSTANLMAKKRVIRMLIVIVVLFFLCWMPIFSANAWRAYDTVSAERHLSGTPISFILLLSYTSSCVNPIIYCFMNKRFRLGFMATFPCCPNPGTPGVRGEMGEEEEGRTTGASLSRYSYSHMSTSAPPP
Format: cell-based
Protocol: The compounds of the invention were also assayed for CCK-antagonist activity as follows:
Isolated, strip preparations were prepared from gall-bladders removed from male Dunkin-Hartley guinea-pigs (250-500 g body weight) according to the method of La Morte, W. W., et al., J.P.E.T., 217, (3), 638-644 (1981).
The complete gall-bladder is removed and opened along the longitudinal axis. Strips measuring 3 mm in the longitudinal axis and 1 mm in the transverse axis are cut and then tied with cotton to stainless steel wires. The preparation is connected to a GRASS FTO3 isometric transducer under an initial loading tension of 1 g and is immersed in 20 mls of Krebs solution maintained at 37° C. and gassed with 95% O2 /5% CO2. The Krebs solution is as detailed above in connection with the fundus assay, except that the Ca^2+ concentration is decreased to 0.5 mM. After 30 mins the preparation is washed. Drug addition begins after an initial 90 min stabilisation period. Responses are measured as changes in tension from that immediately prior to any drug addition. Single cumulative agonist concentration-effect curves, using CCK-8 as agonist, are obtained on each preparation in the absence and presence of test compound which has been incubated for 60 minutes. The antagonist activity of the test compound is estimated and expressed as the negative logarithm (base 10) of the equilibrium dissociation constants (pK8) using the modifications of standard competitive analysis described by Black et al., Br. J. Pharmacol.,86,571-579, (1985) and Shankley et al., Br. J. Pharmacol.,94,264-274 (1988).

Kb | pKB | Compound
1260 nM | – | NC(=O)[C@H](Cc1ccccc1)NC(=O)[C@H](CC(=O)O)NC(=O)[C@H](Cc1ccc2ccccc2c1)NC(=O)[C@H](Cc1c[nH]c2ccccc12)NC(=O)OC12CC3CC(CC(C3)C1)C2 [Example 13, N-1-Adamantyloxycarbonyl-L-tryptophyl-L-3-(2-naphthyl)alanyl-L-aspartyl-L-phenylalaninamide] (Adoc-W[2Nal]DF-NH2)
– | 6.0 | COc1ccc(CCNC(=O)[C@H](CC(=O)O)NC(=O)[C@H](Cc2ccc3ccccc3c2)NC(=O)[C@H](Cc2c[nH]c3ccccc23)NC(=O)OC23CC4CC(CC(C4)C2)C3)cc1 [Example 14, N-1-Adamantyloxycarbonyl-L-tryptophyl-L-3-(2-naphthyl)alanyl-L-aspartyl-4-methoxyphenethylamide]
631 nM | – | CC(C)(C)OC(=O)N[C@H](Cc1c[nH]c2ccccc12)C(=O)N[C@@H](Cc1ccc2ccccc2c1)C(=O)N[C@@H](CC(=O)O)C(=O)N[C@@H](Cc1ccccc1)C(N)=O [Example 22, N-t-Butyloxycarbonyl-D-tryptophyl-L-3-(2-naphthyl)alanyl-L-aspartyl-L-phenylalaninamide] (Boc-[dW][2Nal]DF-NH2)
– | 6.4 | CC(C)(C)OC(=O)N[C@@H](Cc1c[nH]c2ccccc12)C(=O)N[C@@H](Cc1ccc2ccccc2c1)C(=O)N[C@@H](CC(=O)O)C(=O)NCCc1ccc(C(F)(F)F)cc1 [Example 28, N-t-Butyloxycarbonyl-L-tryptophyl-L-3-(2-naphthyl)alanyl-L-aspartyl-4-trifluoromethylphenethylamide]
– | 5.8 | CC(C)(C)OC(=O)N[C@@H](Cc1c[nH]c2ccccc12)C(=O)N[C@@H](Cc1ccc2ccccc2c1)C(=O)N[C@@H](CC(=O)O)C(=O)NCC12CC3CC(CC(C3)C1)C2 [Example 35, N-t-Butyloxycarbonyl-L-tryptophyl-L-3-(2-naphthyl)alanyl-L-aspartyl-1-adamantylmethylamide]
– | 6.5 | CC(C)(C)OC(=O)N[C@@H](Cc1c[nH]c2ccccc12)C(=O)N[C@@H](Cc1ccc2ccccc2c1)C(=O)N[C@@H](CC(=O)O)C(=O)NCCc1ccc2c(c1)CCCC2 [Example 43, N-t-Butyloxycarbonyl-L-tryptophyl-L-3-(2-naphthyl)alanyl-L-aspartyl-2-(5,6,7,8-tetrahydronaphthyl)ethylamide]
– | 6.1 | Cn1cc(C[C@H](NC(=O)OC(C)(C)C)C(=O)N[C@@H](Cc2ccc3ccccc3c2)C(=O)N[C@@H](CC(=O)O)C(=O)N[C@@H](Cc2ccccc2)C(N)=O)c2ccccc21 [Example 45, N-t-Butyloxycarbonyl-L-N^in-methyltryptophyl-L-3-(2-naphthyl)alanyl-L-aspartyl-L-phenylalaninamide] (Boc-[Trp(1-Me)][2Nal]DF-NH2)
– | 6.1 | CC(C)(C)OC(=O)N[C@@H](Cc1c[nH]c2ccccc12)C(=O)N[C@@H](Cc1ccc2ccccc2c1)C(=O)N[C@@H](CC(=O)O)C(=O)NCCc1cccc(C(F)(F)F)c1 [Example 50, N-t-Butyloxycarbonyl-L-tryptophyl-L-3-(2-naphthyl)alanyl-L-aspartyl-3-trifluoromethylphenethylamide]
– | 6.6 | CC(C)(C)OC(=O)N[C@@H](Cc1c[nH]c2ccccc12)C(=O)N[C@@H](Cc1ccc2ccccc2c1)C(=O)N[C@@H](CC(=O)O)C(=O)NC1Cc2ccccc2C1 [Example 53, N-t-Butyloxycarbonyl-L-tryptophyl-L-3-(2-naphthyl)alanyl-L-aspartyl-2-indanylamide]
– | 6.4 | COc1cc(OC)c(CCNC(=O)[C@H](CC(=O)O)NC(=O)[C@H](Cc2ccc3ccccc3c2)NC(=O)[C@H](Cc2c[nH]c3ccccc23)NC(=O)OC(C)(C)C)c(OC)c1 [Example 55, N-t-Butyloxycarbonyl-L-tryptophyl-L-3-(2-naphthyl)alanyl-L-aspartyl-2,4,6-trimethoxyphenethylamide]

Compound | Kb | pKB
NC(=O)[C@H](Cc1ccccc1)NC(=O)[C@H](CC(=O)O)NC(=O)[C@H](Cc1ccc2ccccc2c1)NC(=O)CCc1c[nH]c2ccccc12 [Example 21, Indole-3-propionamido-L-3-(2-naphthyl)alanyl-L-aspartyl-L-phenylalaninamide] | – | 6.2
